Measurements taken from ChEMBL document CHEMBL5465560, “Selectivity Literature for EUbOPEN Chemogenomic Library” (2024).

Legend:
[1] = molecular target: PH-interacting protein (Homo sapiens) (UniProt Q8WWQ0); assay: Selectivity interaction (Human bromodomain panel (DSF assay)) EUB0000233b PHIP
[2] = molecular target: T1, Casein kinase I isoform alpha-like (Homo sapiens) (UniProt Q8N752); settings: at 10 µM
T1 sequence (whole entry): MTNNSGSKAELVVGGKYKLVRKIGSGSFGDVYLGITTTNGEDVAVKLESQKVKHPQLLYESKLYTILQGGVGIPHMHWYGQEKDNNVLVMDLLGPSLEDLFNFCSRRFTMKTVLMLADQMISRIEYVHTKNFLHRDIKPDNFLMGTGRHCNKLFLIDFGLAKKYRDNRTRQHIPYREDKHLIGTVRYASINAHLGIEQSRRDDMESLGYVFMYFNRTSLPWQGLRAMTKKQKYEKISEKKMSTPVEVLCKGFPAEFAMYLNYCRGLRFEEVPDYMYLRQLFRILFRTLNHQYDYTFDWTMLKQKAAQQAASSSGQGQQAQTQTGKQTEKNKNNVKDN

[3] = molecular target: T2, Peripheral plasma membrane protein CASK (Homo sapiens) (UniProt O14936); assay: Selectivity interaction (KinomeScan (DiscoverX)) EUB0000595a CASK; settings: at 10 µM
T2 sequence (whole entry): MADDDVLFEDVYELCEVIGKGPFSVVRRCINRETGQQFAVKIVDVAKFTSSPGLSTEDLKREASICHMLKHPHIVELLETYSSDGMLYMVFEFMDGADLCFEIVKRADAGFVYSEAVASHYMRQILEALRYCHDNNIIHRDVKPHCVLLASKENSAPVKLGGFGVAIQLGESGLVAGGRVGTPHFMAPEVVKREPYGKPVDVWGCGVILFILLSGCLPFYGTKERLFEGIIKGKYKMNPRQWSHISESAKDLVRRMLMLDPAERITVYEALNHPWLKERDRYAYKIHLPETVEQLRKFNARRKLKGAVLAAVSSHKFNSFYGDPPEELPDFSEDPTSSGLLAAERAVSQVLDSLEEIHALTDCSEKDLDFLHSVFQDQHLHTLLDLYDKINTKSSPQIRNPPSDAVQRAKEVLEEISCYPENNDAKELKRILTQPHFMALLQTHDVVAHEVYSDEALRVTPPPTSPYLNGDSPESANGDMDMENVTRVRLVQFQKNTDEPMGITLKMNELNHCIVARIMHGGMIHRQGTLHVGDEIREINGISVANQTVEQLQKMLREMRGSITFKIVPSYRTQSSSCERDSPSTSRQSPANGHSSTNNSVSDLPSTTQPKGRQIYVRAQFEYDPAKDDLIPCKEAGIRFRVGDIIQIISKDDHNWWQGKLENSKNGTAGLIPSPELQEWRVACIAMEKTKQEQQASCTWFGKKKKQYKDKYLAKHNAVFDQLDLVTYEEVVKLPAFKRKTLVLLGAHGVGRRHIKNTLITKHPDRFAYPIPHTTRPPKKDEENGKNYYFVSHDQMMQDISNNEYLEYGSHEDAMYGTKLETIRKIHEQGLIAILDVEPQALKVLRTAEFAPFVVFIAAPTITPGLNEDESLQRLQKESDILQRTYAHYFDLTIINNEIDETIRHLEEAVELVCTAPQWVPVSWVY

[4] = molecular target: T3, MAP kinase-activated protein kinase 5 (Homo sapiens) (UniProt Q8IW41); assay: Selectivity interaction (KinomeScan (DiscoverX)) EUB0000092b MAPKAPK5; settings: at 10 µM
T3 sequence (whole entry): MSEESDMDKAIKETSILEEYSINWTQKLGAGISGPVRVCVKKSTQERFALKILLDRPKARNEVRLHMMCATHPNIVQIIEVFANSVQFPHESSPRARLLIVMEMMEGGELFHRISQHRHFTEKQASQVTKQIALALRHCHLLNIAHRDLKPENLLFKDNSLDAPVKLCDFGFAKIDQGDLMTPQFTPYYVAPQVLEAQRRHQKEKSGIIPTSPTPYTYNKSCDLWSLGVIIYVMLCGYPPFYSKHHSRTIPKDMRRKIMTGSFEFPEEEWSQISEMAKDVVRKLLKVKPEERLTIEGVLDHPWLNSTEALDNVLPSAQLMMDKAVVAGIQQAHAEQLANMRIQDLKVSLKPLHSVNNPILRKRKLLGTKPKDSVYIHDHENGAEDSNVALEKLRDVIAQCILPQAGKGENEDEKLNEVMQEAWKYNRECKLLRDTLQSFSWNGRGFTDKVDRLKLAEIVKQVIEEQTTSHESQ

[5] = molecular target: Mitogen-activated protein kinase kinase kinase 10 (Homo sapiens) (UniProt Q02779); assay: Selectivity interaction (Ambit KINOMEscan and KiNATiv profiling in Jurkat cells) EUB0000090b MAP3K10; type: cell-based; settings: at 1 µM
Chain of Mitogen-activated protein kinase kinase kinase 10 (Homo sapiens) (Q02779 whole entry, looked up): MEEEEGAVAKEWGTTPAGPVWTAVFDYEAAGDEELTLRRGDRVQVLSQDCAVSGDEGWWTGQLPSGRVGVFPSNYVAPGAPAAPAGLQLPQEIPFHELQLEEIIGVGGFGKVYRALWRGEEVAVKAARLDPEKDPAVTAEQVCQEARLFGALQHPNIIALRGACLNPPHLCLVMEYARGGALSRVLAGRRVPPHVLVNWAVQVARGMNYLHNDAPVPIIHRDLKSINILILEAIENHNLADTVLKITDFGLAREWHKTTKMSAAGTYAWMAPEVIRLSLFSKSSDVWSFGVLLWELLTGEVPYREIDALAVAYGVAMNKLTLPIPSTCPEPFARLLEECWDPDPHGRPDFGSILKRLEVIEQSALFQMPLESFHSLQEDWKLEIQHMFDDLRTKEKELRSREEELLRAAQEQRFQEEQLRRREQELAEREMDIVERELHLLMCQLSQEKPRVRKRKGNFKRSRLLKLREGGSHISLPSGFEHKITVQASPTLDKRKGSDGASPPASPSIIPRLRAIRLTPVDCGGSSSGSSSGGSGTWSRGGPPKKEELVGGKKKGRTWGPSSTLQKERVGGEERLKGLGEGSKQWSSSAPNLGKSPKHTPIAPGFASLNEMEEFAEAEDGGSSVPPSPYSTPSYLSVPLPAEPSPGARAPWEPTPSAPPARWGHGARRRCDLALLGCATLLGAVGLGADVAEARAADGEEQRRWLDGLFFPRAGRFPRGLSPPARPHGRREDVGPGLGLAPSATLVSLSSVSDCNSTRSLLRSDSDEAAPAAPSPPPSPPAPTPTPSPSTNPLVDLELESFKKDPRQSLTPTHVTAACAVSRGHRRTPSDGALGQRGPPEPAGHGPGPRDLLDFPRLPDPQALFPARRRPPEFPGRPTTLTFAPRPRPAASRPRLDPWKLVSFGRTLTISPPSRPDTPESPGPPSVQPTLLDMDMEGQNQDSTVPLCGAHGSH

[6] = molecular target: Receptor-interacting serine/threonine-protein kinase 2 (Homo sapiens, UniProt O43353); assay: Selectivity interaction (KinomeScan (DiscoverX)) EUB0000045b RIPK2
Chain of Receptor-interacting serine/threonine-protein kinase 2 (O43353 whole entry): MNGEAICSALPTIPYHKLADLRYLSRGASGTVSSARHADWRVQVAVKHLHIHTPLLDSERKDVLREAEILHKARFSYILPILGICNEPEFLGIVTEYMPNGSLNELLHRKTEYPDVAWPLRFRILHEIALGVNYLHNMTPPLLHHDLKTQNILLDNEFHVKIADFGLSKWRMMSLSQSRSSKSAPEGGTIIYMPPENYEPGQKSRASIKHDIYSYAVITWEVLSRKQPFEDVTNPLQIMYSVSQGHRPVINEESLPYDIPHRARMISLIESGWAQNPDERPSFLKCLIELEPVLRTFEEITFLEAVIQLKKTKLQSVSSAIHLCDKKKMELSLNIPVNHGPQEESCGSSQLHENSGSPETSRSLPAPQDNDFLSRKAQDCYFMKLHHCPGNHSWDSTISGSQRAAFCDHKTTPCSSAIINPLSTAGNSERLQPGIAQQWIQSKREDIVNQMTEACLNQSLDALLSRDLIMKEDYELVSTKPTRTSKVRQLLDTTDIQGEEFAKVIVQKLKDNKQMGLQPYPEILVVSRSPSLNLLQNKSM

[7] = molecular target: Serine/threonine-protein kinase 25 (Homo sapiens) (UniProt O00506); assay: Selectivity interaction (KinomeScan (DiscoverX)) EUB0000045b STK25
Chain of Serine/threonine-protein kinase 25 (Homo sapiens) (O00506 whole entry, looked up): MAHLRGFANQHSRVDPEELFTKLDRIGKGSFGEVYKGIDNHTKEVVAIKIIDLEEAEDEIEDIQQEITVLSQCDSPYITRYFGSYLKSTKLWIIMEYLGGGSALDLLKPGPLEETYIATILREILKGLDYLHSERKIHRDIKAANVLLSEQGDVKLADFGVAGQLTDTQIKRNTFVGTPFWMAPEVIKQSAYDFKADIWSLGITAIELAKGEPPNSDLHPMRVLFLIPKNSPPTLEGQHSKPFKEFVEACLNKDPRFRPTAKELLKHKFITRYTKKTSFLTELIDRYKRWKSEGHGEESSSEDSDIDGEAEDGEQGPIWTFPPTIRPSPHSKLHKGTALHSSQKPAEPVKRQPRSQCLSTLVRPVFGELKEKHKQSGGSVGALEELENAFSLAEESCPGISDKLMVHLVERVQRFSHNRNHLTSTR

[8] = molecular target: Serine/threonine-protein kinase 32C (Homo sapiens) (UniProt Q86UX6); settings: at 10 µM
Chain of Serine/threonine-protein kinase 32C (Homo sapiens) (Q86UX6 whole entry): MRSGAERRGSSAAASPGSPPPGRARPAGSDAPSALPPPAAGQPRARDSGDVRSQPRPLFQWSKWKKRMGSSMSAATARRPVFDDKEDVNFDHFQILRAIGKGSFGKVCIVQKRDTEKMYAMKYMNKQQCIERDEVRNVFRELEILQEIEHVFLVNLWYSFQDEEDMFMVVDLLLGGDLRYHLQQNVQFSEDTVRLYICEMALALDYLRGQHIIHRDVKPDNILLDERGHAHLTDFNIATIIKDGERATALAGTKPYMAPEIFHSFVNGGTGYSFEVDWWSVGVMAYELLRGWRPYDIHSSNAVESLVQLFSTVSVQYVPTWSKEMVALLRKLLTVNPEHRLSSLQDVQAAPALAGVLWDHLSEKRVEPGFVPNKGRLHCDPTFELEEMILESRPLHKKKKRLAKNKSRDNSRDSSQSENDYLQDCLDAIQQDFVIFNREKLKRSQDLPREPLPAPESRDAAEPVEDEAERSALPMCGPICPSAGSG

[9] = molecular target: Dual specificity mitogen-activated protein kinase kinase 1 (Homo sapiens, UniProt Q02750); assay: Selectivity interaction (Upstate Kinase Profiler service (Millipore)) EUB0000056c MAP2K1; settings: at 1 µM
Chain of Dual specificity mitogen-activated protein kinase kinase 1 (Q02750 whole entry): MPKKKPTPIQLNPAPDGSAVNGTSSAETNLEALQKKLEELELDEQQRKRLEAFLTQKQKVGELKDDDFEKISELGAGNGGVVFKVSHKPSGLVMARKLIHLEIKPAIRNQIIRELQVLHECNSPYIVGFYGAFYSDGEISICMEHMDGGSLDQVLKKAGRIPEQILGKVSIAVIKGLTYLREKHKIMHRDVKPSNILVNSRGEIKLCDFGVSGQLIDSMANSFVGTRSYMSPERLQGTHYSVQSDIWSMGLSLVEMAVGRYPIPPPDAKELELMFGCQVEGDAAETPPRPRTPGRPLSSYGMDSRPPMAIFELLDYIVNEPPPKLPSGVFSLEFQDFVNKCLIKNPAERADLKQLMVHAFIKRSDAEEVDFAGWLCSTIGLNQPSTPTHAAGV

[10] = molecular target: T4, Serine/threonine-protein kinase Chk1 (Homo sapiens) (UniProt O14757); assay: Selectivity interaction (KinomeScan (DiscoverX)) EUB0000655a CHEK1; settings: at 10 µM
T4 sequence (whole entry): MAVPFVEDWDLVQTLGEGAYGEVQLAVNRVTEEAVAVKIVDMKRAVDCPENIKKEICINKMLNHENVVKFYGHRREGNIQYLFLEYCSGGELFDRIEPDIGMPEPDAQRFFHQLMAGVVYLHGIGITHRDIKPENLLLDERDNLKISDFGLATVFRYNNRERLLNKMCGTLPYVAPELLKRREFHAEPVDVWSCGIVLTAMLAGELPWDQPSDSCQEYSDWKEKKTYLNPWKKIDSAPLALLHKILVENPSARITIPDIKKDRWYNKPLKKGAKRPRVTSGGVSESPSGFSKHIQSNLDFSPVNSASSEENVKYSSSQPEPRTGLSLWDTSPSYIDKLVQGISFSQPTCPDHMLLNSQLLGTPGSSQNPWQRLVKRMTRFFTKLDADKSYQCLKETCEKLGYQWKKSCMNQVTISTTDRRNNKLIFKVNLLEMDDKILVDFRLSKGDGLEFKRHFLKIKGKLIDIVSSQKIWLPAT

Ephrin type-A receptor 4 = Ephrin type-A receptor 4 (Homo sapiens, UniProt P54764); assay: Selectivity interaction (SelectScreen profiling (Invitrogen)) EUB0000607a EPHA4; settings: at 2 µM
Chain of Ephrin type-A receptor 4 (P54764 whole entry): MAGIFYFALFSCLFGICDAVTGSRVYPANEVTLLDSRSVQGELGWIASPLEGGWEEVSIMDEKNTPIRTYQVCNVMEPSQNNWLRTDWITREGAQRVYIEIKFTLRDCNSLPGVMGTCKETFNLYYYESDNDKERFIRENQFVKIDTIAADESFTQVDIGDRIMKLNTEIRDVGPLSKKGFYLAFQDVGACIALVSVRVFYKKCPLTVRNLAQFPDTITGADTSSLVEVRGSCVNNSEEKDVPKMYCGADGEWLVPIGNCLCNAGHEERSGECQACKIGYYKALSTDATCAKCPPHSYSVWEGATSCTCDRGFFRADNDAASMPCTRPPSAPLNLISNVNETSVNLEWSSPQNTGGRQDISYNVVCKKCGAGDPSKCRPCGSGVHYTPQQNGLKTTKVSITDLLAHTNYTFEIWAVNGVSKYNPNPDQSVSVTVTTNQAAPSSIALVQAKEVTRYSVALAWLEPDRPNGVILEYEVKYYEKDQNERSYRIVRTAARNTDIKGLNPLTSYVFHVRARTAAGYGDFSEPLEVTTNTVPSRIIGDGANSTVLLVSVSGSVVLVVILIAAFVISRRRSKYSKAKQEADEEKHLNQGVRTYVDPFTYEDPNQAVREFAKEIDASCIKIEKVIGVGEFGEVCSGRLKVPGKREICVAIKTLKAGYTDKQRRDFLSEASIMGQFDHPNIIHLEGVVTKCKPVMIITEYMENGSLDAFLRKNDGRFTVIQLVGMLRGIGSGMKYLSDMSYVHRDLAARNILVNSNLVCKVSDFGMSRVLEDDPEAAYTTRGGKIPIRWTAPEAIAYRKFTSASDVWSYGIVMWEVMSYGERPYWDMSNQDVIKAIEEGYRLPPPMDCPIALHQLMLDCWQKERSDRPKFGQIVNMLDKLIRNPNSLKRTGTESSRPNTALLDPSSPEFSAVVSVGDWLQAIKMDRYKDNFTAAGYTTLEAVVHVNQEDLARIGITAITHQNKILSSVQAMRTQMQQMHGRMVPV

[11] = molecular target: Tyrosine-protein kinase JAK2 (Homo sapiens, UniProt O60674); assay: Selectivity interaction (Kinase panel (Carna Biosciences)) EUB0001542aTs JAK2; settings: at 1 µM
Chain of Tyrosine-protein kinase JAK2 (O60674 whole entry): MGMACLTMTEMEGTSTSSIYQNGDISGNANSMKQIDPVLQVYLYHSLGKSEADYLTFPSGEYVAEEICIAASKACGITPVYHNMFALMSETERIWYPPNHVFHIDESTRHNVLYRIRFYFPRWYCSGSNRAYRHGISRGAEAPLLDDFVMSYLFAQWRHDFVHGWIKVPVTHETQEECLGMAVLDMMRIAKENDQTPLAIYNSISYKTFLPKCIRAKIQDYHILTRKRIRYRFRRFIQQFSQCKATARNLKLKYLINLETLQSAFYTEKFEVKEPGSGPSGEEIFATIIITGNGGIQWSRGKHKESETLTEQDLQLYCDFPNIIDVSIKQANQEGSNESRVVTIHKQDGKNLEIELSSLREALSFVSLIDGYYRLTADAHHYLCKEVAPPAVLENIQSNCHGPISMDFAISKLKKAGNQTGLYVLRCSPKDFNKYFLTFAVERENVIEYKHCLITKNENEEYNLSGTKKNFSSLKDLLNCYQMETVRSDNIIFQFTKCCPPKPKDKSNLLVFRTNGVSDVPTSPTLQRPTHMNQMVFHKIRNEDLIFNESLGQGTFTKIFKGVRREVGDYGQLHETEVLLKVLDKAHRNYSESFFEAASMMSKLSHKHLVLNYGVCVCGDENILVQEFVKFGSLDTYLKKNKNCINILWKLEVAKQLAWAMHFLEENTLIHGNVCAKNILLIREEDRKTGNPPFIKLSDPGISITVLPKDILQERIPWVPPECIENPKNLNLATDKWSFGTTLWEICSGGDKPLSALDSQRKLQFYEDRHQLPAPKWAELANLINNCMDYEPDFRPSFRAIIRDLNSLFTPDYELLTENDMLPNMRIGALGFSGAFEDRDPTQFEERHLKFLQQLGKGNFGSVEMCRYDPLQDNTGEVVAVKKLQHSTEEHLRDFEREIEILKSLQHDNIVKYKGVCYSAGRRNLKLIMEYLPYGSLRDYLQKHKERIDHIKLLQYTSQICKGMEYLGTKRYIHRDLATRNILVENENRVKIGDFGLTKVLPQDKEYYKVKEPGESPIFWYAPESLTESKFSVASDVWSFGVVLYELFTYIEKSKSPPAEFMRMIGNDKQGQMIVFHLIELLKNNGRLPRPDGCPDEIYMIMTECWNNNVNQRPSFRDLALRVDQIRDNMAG

SMILES: CN(C)CCCOc1ccc(-c2cc(NCCCn3cccn3)nc(S(C)(=O)=O)n2)cc1
- dTM [1]: < 2 K

SMILES: CCN(CC)CCCCNc1ncc2cc(-c3cc(OC)cc(OC)c3)c(NC(=O)NC(C)(C)C)nc2n1
- % of control [2]: 100%

SMILES: COCC(=O)NC/C=C/c1ccc2ncnc(Nc3ccc(Oc4ccc(C)nc4)c(C)c3)c2c1 [CP-724714]
- % of control [3]: 100%

SMILES: CCC(=O)N1CCN(c2ccc(-n3c(=O)ccc4cnc5ccc(-c6cnc7ccccc7c6)cc5c43)cc2C(F)(F)F)CC1
- % of control [4]: 100%

SMILES: CN(C)C/C=C/C(=O)Nc1ccc(C(=O)N2CCCC(Nc3ncc(Cl)c(-c4c[nH]c5ccccc45)n3)C2)cc1 (centres undefined)
- % of control [5]: 100%

SMILES: C=CC(=O)Nc1cc(-n2c(=O)ccc3cnc4ccc(-c5ccc(NS(C)(=O)=O)cc5)cc4c32)ccc1C
- % of control ([6]; at 1 µM): 100%
- % of control ([6]; at 10 µM): 92%
- % of control ([7]; at 1 µM): 100%
- % of control ([7]; at 10 µM): 65%

SMILES: Cc1cc([C@@H](C)Nc2ccccc2C(=O)O)c2nc(N3CCOCC3)cc(=O)n2c1 [AZD-6482]
- % of control [8]: 82%

SMILES: Cc1ccc(-c2ccc3c(ccc4sc5c(c43)NC[C@@H](C)NC5=O)n2)cn1
- % of inhibition [9]: -8%

SMILES: CN(C)CCOc1ccc(-c2nc(-c3ccncc3)c(-c3ccc4c(c3)CC/C4=N\O)[nH]2)cc1
- % of control [10]: 80%

SMILES: CNC(=O)Nc1ccc(-c2nc(N3CC4CCC(C3)O4)c3cnn(C4CCC5(CC4)OCCO5)c3n2)cc1
- % of inhibition (Ephrin type-A receptor 4): -1%

SMILES: Cn1cc(Nc2nccc(N3CC4CCC(C3)N4C(=O)[C@@H]3CC3(F)F)n2)cn1
- % of inhibition [11]: 94%
